Molecules are shown by their SMILES. Read-outs that look alike come from different tables or passages of the source. Where only a bound is given, the exact number is not on record here.

In one experiment the target is KRAS G12D:SOS1 (Homo sapiens, UniProt P01116, G12D). Briefly: KRAS G12D:SOS1 GDP TR-FRET assay. In kind it is binding. The following applies: GST-KRAS G12D 37.5 nM, GDP 10 μM, His-SOS1 18 nM. Background: In TR-FRET formats the signal depends on donor and acceptor labels being close together.
The target of a further experiment is WT KRAS:SOS1 (Homo sapiens, UniProt P01116). Briefly: KRAS WT:SOS1 GDP TR-FRET assay. The settings on record: GST-WT KRAS 37.5 nM, GDP 10 μM, His-SOS1 18 nM. The format is binding.
The target of the next experiment is GDP-loaded KRAS G12D (Homo sapiens, UniProt P01116, G12D). Nature of the experiment: KRAS G12D Probe Displacement Assay. The format is binding.
In the next experiment the target is GDP-loaded WT KRAS (Homo sapiens, UniProt P01116). Briefly: KRAS WT Probe Displacement Assay. The format is binding.
The test system of experiment [1] is pERK1/2 (THR202/TYR204) in AsPC-1 cells. Nature of the experiment: pERK Assay (HTRF) in AsPC-1 cells. The format is cell-based. The following applies: Homo sapiens, ASPC1, 2 h compound treatment.
Experiment [2] addresses T1, KRAS G12D protein in AsPC-1 cells (Homo sapiens, UniProt P01116, G12D).
T1 construct: endogenous in cells; host or cells: AsPC-1
Briefly: Western Blotting Assay in AsPC-1 cells. The format is cell-based. The following applies: 48 h compound treatment, concentration 3 uM. The protocol: AsPC-1 cell line was used in this study. […] 400000 AsPC-1 cells per well in 1 mL culture medium were seed in the 12-well plate for 4 hours. Cells were treated with an appropriate dilution series of compounds. After 48 h compound treatment, medium was aspirated, the cells were washed with PBS, and then 30 μL of 1× protein lysis buffer (Cell Signaling Technology) containing protease inhibitors (Merck) and phosphatase inhibitors (Sigma) was added. The cells were lysed, and after centrifugation, the supernatants were quantified by BCA Protein assay Kit (Thermo Fisher). 4× loading Buffer (Thermo Fisher) was added to equal amounts of total protein from each sample and heated at 95° C. for 5 minutes. […] of cell lysates were loaded onto a 12% NuPAGE Bis-Tris Gel (Thermo Fisher), electro-transferred to NC membranes (Thermo Fisher), The membranes were blocked at least 1 hour with Blocking reagent (LI-COR), and then incubated overnight with anti-KRAS (LSBio, LS-C175665) or pERK (Cell Signaling Technology, 4370L) antibodies and as loading control anti-β-actin (Cell Signaling Technology, 3700S) or anti-GAPDH (Cell Signaling Technology, 97166S) at 4° C. with gentle shaking. The membranes were washed three times with TBST, and incubated at least 1 hour at room temperature with anti-mouse or anti-Rabbit secondary fluorescent antibody (Thermo Fisher, A32729; LI-COR, 926-32213). […]
On the technique in general: In western blotting, separated proteins are transferred to a membrane and probed.

Where [3] appears, read: KRAS G12D 0.5 nM, biotinylated probe 2 4 nM, read-out: KRAS G12D Probe Displacement Assay IC50.
The mark [4] stands for this setting: WT KRAS 3 nM, biotinylated probe 1 60 nM, read-out: KRAS WT Probe Displacement Assay IC50.

`Cc1cc(N)nc(-c2c(Cl)cc3c(N4CC5CCC(C4)N5)nc(O[C@@H](C)CN4CCCCC4)nc3c2F)c1C(F)(F)F` [Example E35, 6-(4-(3,8-diazabicyclo[3.2.1]octan-3-yl)-6-chloro-8-fluoro-2-(((S)-1-(piperidin-1-yl)propan-2-yl)oxy)quinazolin-7-yl)-4-methyl-5-(trifluoromethyl)pyridin-2-amine]: the IC50 (commonly the concentration needed to halve the response being measured) on KRAS G12D:SOS1 is 22 nM; against WT KRAS:SOS1, 3300 nM; at GDP-loaded KRAS G12D (setting [3]), 130 nM; on GDP-loaded WT KRAS (setting [4]) it was 7300 nM; in experiment [1], 4350 nM.

With `CN1C[C@H](F)C[C@H]1COc1nc(N2C3CCC2CNC3)c2cc(Cl)c(-c3ccc(F)c4sc(N)nc34)c(F)c2n1` [Example E36, 4-(4-(3,8-diazabicyclo[3.2.1]octan-8-yl)-6-chloro-8-fluoro-2-(((2S,4R)-4-fluoro-1-methylpyrrolidin-2-yl)methoxy)quinazolin-7-yl)-7-fluorobenzo[d]thiazol-2-amine], the half-inhibitory concentration (IC50) turned out to be 10 nM against KRAS G12D:SOS1; 242 nM on WT KRAS:SOS1; 3.7 nM at GDP-loaded KRAS G12D (setting [3]); 120 nM on GDP-loaded WT KRAS (setting [4]); 715 nM in experiment [1].

On to `Cc1cc(N)nc(-c2c(Cl)cc3c(N4CC5CCC(C4)N5)nc(OC[C@@H]4C[C@@H](F)CN4C)nc3c2F)c1C(F)(F)F` [Example E37, 6-(4-(3,8-diazabicyclo[3.2.1]octan-3-yl)-6-chloro-8-fluoro-2-(((2S,4R)-4-fluoro-1-methylpyrrolidin-2-yl)methoxy)quinazolin-7-yl)-4-methyl-5-(trifluoromethyl)pyridin-2-amine], for which the IC50 against KRAS G12D:SOS1 came out at 13 nM; at WT KRAS:SOS1, 692 nM; on GDP-loaded KRAS G12D (setting [3]) it was 16 nM; on GDP-loaded WT KRAS (setting [4]), 700 nM; in experiment [1], 807 nM.

Regarding `CC1CCCC(C)N1C[C@H](C)Oc1nc(N2CC3CCC(C2)N3)c2cc(Cl)c(-c3ccc(F)c4sc(N)nc34)c(F)c2n1` (some centres unmarked) [Example E38], the IC50 amounted to 12 nM against KRAS G12D:SOS1; 804 nM on WT KRAS:SOS1; 32 nM at GDP-loaded KRAS G12D (setting [3]); 1400 nM at GDP-loaded WT KRAS (setting [4]); 1310 nM in experiment [1].

Turning to `CN(C)C(=O)CCOc1nc(N2CC3CCC(C2)N3)c2cc(Cl)c(-c3ccc(F)c4sc(N)nc34)c(F)c2n1` [Example E40, 3-((7-(2-amino-7-fluorobenzo[d]thiazol-4-yl)-4-(3,8-diazabicyclo[3.2.1]octan-3-yl)-6-chloro-8-fluoroquinazolin-2-yl)oxy)-N,N-dimethylpropanamide], the IC50 against KRAS G12D:SOS1 was 24 nM; against WT KRAS:SOS1 it was 2210 nM; on GDP-loaded KRAS G12D (setting [3]), 41 nM; on GDP-loaded WT KRAS (setting [4]), 1400 nM; in experiment [1] it was above 10000 nM.

Take `C[C@@H](CN1CCOCC1)Oc1nc(N2C3CCC2CNC3)c2cc(Cl)c(-c3ccc(F)c4sc(N)nc34)c(F)c2n1` [Example E41, 4-(4-(3,8-diazabicyclo[3.2.1]octan-8-yl)-6-chloro-8-fluoro-2-(((S)-1-morpholinopropan-2-yl)oxy)quinazolin-7-yl)-7-fluorobenzo[d]thiazol-2-amine]: the concentration for half-maximal inhibition (IC50) at KRAS G12D:SOS1 was 11 nM; against WT KRAS:SOS1, 438 nM; at GDP-loaded KRAS G12D (setting [3]) it was 11 nM; on GDP-loaded WT KRAS (setting [4]) it was 230 nM; in experiment [1], 1480 nM.

`C[C@@H](CN1CCC(F)C1)Oc1nc(N2C3CCC2CNC3)c2cc(Cl)c(-c3ccc(F)c4sc(N)nc34)c(F)c2n1` (stereo partly drawn) [Example E43, 4-(4-(3,8-diazabicyclo[3.2.1]octan-8-yl)-6-chloro-8-fluoro-2-(((2S)-1-(3-fluoropyrrolidin-1-yl)propan-2-yl)oxy)quinazolin-7-yl)-7-fluorobenzo[d]thiazol-2-amine]: the half-maximal inhibitory concentration (IC50) at KRAS G12D:SOS1 was found to be 17 nM; against WT KRAS:SOS1, 488 nM; on GDP-loaded KRAS G12D (setting [3]), 8.4 nM; at GDP-loaded WT KRAS (setting [4]), 320 nM; in experiment [1] it was 2550 nM.

On to `Cc1ncsc1-c1ccc([C@H](C)NC(=O)[C@@H]2C[C@@H](O)CN2C(=O)[C@@H](NC(=O)COC2CCN(CC(C)Oc3nc(N4CC5CCC(C4)N5)c4cc(Cl)c(-c5ccc(F)c6sc(N)nc56)c(F)c4n3)CC2)C(C)(C)C)cc1` (stereo partly drawn) [Example E44, (2S,4R)-1-((2S)-2-(2-((1-(2-((7-(2-amino-7-fluorobenzo[d]thiazol-4-yl)-4-(3,8-diazabicyclo[3.2.1]octan-3-yl)-6-chloro-8-fluoroquinazolin-2-yl)oxy)propyl)piperidin-4-yl)oxy)acetamido)-3,3-dimethylbutanoyl)-4-hydroxy-N—((S)-1-(4-(4-methylthiazol-5-yl)phenyl)ethyl)pyrrolidine-2-carboxamide], for which, in experiment [2], the “KRAS G12D protein level decrease” value came to 70%.

Regarding `Cc1cc(N)nc(-c2c(Cl)cc3c(N4CC5CCC(C4)N5)nc(OC[C@@]45CCCN4C[C@H](F)C5)nc3c2F)c1C(F)(F)F` [Example E49, 6-(4-(3,8-diazabicyclo[3.2.1]octan-3-yl)-6-chloro-8-fluoro-2-(((2R,7aS)-2-fluorotetrahydro-1H-pyrrolizin-7a(5H)-yl)methoxy)quinazolin-7-yl)-4-methyl-5-(trifluoromethyl)pyridin-2-amine], the 50% inhibitory concentration (IC50) on KRAS G12D:SOS1 was 4.8 nM; against WT KRAS:SOS1, 35 nM; on GDP-loaded KRAS G12D it was 3.1 nM; at GDP-loaded WT KRAS it was 49 nM; in experiment [1], 84 nM.

Consider `Cc1cc(N)nc(-c2c(Cl)cc3c(N4CC5CCC(C4)N5)nc(OCC45CCCN4CC(F)C5)nc3c2F)c1C(F)(F)F` (centres unmarked) [Example E50, 6-(4-(3,8-diazabicyclo[3.2.1]octan-3-yl)-6-chloro-8-fluoro-2-((2-fluorotetrahydro-1H-pyrrolizin-7a(5H)-yl)methoxy)quinazolin-7-yl)-4-methyl-5-(trifluoromethyl)pyridin-2-amine], for which the 50% inhibitory concentration (IC50) at KRAS G12D:SOS1 came out at 7.6 nM; at WT KRAS:SOS1, 140 nM; at GDP-loaded KRAS G12D, 4 nM; at GDP-loaded WT KRAS, 160 nM; in experiment [1], 312 nM.

As to `CN1C[C@H](F)C[C@H]1COc1nc(N2CC3CCC(C2)N3)c2cc(C(F)(F)F)c(-c3ccc(F)c4sc(N)nc34)c(F)c2n1` [Example E51, 4-(4-(3,8-diazabicyclo[3.2.1]octan-3-yl)-8-fluoro-2-(((2S,4R)-4-fluoro-1-methylpyrrolidin-2-yl)methoxy)-6-(trifluoromethyl)quinazolin-7-yl)-7-fluorobenzo[d]thiazol-2-amine], the IC50 is 6.5 nM on KRAS G12D:SOS1; 61 nM against WT KRAS:SOS1; 1.1 nM on GDP-loaded KRAS G12D (setting [3]); 33 nM at GDP-loaded WT KRAS (setting [4]); 202 nM in experiment [1].

With `CN1C[C@H](F)C[C@H]1COc1nc(N2CC3CCC(C2)N3)c2cc(Cl)c(-c3ccc(F)c4sc(N)nc34)c(Cl)c2n1` [Example E53, 4-(4-(3,8-diazabicyclo[3.2.1]octan-3-yl)-6,8-dichloro-2-(((2S,4R)-4-fluoro-1-methylpyrrolidin-2-yl)methoxy)quinazolin-7-yl)-7-fluorobenzo[d]thiazol-2-amine], the IC50 came out at 5.1 nM against KRAS G12D:SOS1; 132 nM at WT KRAS:SOS1; 1.2 nM at GDP-loaded KRAS G12D (setting [3]); 47 nM at GDP-loaded WT KRAS (setting [4]); 380 nM in experiment [1].

Turning to `Nc1nc2c(-c3c(OC(F)(F)F)cc4c(N5CC6CCC(C5)N6)nc(OC[C@@]56CCCN5C[C@H](F)C6)nc4c3F)ccc(F)c2s1` [Example E87, 4-(4-(3,8-diazabicyclo[3.2.1]octan-3-yl)-8-fluoro-2-(((2R,7aS)-2-fluorotetrahydro-1H-pyrrolizin-7a(5H)-yl)methoxy)-6-(trifluoromethoxy)quinazolin-7-yl)-7-fluorobenzo[d]thiazol-2-amine], the concentration for half-maximal inhibition (IC50) on GDP-loaded KRAS G12D (setting [3]) worked out at 0.24 nM; at GDP-loaded WT KRAS (setting [4]) it was 25 nM; in experiment [1], 112 nM.

On to `CN1C[C@H](F)CC1(C)COc1nc(N2CC3CCC(C2)N3)c2cc(Cl)c(-c3ccc(F)c4sc(N)nc34)c(F)c2n1` (stereo partly drawn) [Example E89, 4-(4-(3,8-diazabicyclo[3.2.1]octan-3-yl)-6-chloro-8-fluoro-2-(((4R)-4-fluoro-1,2-dimethylpyrrolidin-2-yl)methoxy)quinazolin-7-yl)-7-fluorobenzo[d]thiazol-2-amine], for which the IC50 at GDP-loaded KRAS G12D (setting [3]) worked out at 2.4 nM; at GDP-loaded WT KRAS (setting [4]), 121 nM; in experiment [1], 556 nM.

Source of the values: patent US20240140957A1, “BRIDGED COMPOUNDS AS KRAS G12D INHIBITOR AND DEGRADER AND THE USE THEREOF” (BeiGene Switzerland GmbH, priority 2021, published 2024).
